This is an account of results in patent publication US20220202705A1, “THERMORESPONSIVE HYDROGEL CONTAINING POLYMER MICROPARTICLES FOR NONINVASIVE OCULAR BIOLOGIC DELIVERY” (University of Pittsburgh - Of the Commonwealth System of …, priority 2016, published 2022).

For data set [1], the system named is New Zealand White rabbits. Description: Post-mortem T1-weighted MRI 24 h after intravitreal injection of Gd-DOTA in thermoresponsive gel. Conditions: in hydrogel. Type of data set: in vivo, rabbit. The protocol:
Scans were performed within one hour of sacrifice. Soluble Gd-DOTA without MP encapsulation was largely cleared from the injection site at 24 h, with only 56% and 59% signal intensity (relative to nearby muscle tissue) in the vitreous and anterior chamber, respectively. […] The spatiotemporal distribution of Gd-DOTA into the rest of the eye will also provide valuable data for future controlled release formulations of other ocular therapeutics, such as those targeting the posterior segment of the eye.

The conditions of data set [2]: in vivo; cited from earlier work.
A short description of data set [3]: Loading and release of other drugs from microparticles embedded in the gel. Type of data set: physicochemical. An excerpt:
The loading and release of other drugs (moxiflxacin and vancomycin) with the microparticles embedded within the gel has also been confirmed.

The nature of data set [4]: In vitro NGF release from PLGA microspheres. The data set is classed as physicochemical. Particulars: FIG. 15. On the procedure: 1. Prepare aqueous solution of NGF in DI water at 100 ug/ml concentration
2. Add 200 ul of this NGF solution to 4 ml dichloromethane/PLGA solution (using 200 mg of desired PLGA—for microspheres in FIG. 1 this was acid terminated 50:50 lactic:glycolic MW=7-17,000 Da viscosity=0.16-0.24 dl/g)
3. Sonicate for 10 s at 25% amplitude
4. Immediately add to 60 ml of 2% PVA solution and homogenize at 2300 rpm for 1 min
5. Add to 80 ml of 1% PVA solution and stir at 600 rpm for 3 h
6. Wash 4 times (each wash: centrifuge 5-10 min at 1000 rpm, decant, resuspend in DI water)
7. Freeze under liquid N2 and place on lyophilizer until all water is gone
1. Add microspheres (10 mg microspheres/100 ul gel) just prior to use and gently mix to suspend homogeneously.

The conditions of data set [5]: 2 drops per day of 0.2% BT, 1-7% absorption, 0.66 mg brimonidine per mg BT. The protocol: Theoretical maximum and minimum amounts of BT absorption were also calculated as a basis for comparison for in vitro release from the BTMPs. This range was calculated by assuming a 50 μl drop and 2 drops administered per day at a rate of either 1% (minimum) or 7% (maximum) absorption (Ghate and Edelhauser, 2008). As the in vitro release methods measure base brimonidine and not the tartrate salt, a necessary conversion factor of 0.66 mg brimonidine for every 1 mg BT was incorporated in these calculations (Acheampong et al., 2002).

In the case of `O=C([O-])CN1CCN(CC(=O)[O-])CCN(CC(=O)O)CCN(CC(=O)[O-])CC1.[Gd+3]` [Soluble Gd-DOTA, gadolinium-tetraazocyclododecanetetraacetic acid], in data set [1], the “signal intensity relative to muscle, anterior chamber” value was 59% and the “signal intensity relative to muscle, vitreous” value came out at 56%.
For the molecule Brimonidine tartrate [BT], in data set [2], the ocular half-life is on record as 28.2 min.
With `CN[C@H](CC(C)C)C(=O)N[C@H]1C(=O)N[C@@H](CC(N)=O)C(=O)N[C@H]2C(=O)N[C@H]3C(=O)N[C@H](C(=O)N[C@H](C(=O)O)c4cc(O)cc(O)c4-c4cc3ccc4O)[C@H](O)c3ccc(c(Cl)c3)Oc3cc2cc(c3O[C@@H]2O[C@H](CO)[C@@H](O)[C@H](O)[C@H]2O[C@H]2C[C@](C)(N)[C@H](O)[C@H](C)O2)Oc2ccc(cc2Cl)[C@H]1O` [vancomycin], the “loading and release with microparticles embedded within the gel” value in data set [3] is given as “confirmed”.
Consider “NGF: nerve growth factor, released from NGF-loaded PLGA microspheres”, for which the “duration of NGF release” value in data set [4] is given as “approximately one week”.
As to `O=C([O-])CN(CCN(CC(=O)[O-])CC(=O)O)CCN(CC(=O)[O-])CC(=O)O.[Gd+3]` [Gd-DTPA], the ocular half-life in data set [2] is reported as 28.08 min.
As for `Brc1c(NC2=NCCN2)ccc2nccnc12` [Brimonidine, brimonidine], the “therapeutic levels (theoretical brimonidine absorbed)” value in data set [5] was 0.53 to 3.7 µg/day.
